# Test results published in US9834550B2, “Pyridopyrimidinone compounds for modulating the catalytic activity of histone lysine demethylases (KDMs)” (Dong-A Socio Holdings Co., Ltd., priority 2014, dated 2017).
# Target: T1, Recombinant human JARID1B/KDM5B (Homo sapiens, UniProt Q9UGL1)
# T1 construct: purchased Active Motif 31432; host or cells: Sf9 insect cells
# Assay: LANCE Ultra TR-FRET demethylase assay with FLAG-tagged JARID1B
# Format: biochemical
# Details: 100 nM compound; 500 nM biotinylated H3K4me3 peptide substrate
# Description: FLAG-tagged JARID1B (also known as KDM5B) protein was screened against more than 170 compounds. For this compound screening, LANCE Ultra time-resolved fluorescence resonance energy transfer (TR-FRET) assay was employed using an europoium (Eu)-labeled antibody that can specifically recognize mono- or dimethylated peptides (H3K4me2/1) and ULight-streptavidin (ULight-SA), a small molecule fluorescent dye. When irradiated at 340 nm, the energy from the Eu donor is transferred to the ULight acceptor dye which, in turn, emits light primarily at 665 nm. The ratio between the intensity of primary emission at 665 nm and that of secondary emission at 590 nm was used to quantify the level of lysine methylation. As JARID1B removes more methyl moieties from tri-methylated substrate peptides (H3K4me3), the ratio increases until the enzyme reaction is terminated. In case, therefore, the compounds disrupt the enzymatic activity completely, the ratio becomes equal to a background value.
# Recombinant human JARID1B/KDM5B (accession number NP_006609) of molecular weight 179.9 KDa was expressed in Sf9 insect cells and contains an N-terminal FLAG tag. The enzyme was obtained from Active Motif (Catalog No. 31432). The tri-methylated histone substrate peptide of purity greater than 95% was a synthetic peptide in which the first 21 amino acids correspond to the human histone H3 sequence with three extra amino acids and a biotin motif (GGK-biotin) linked to the C-terminus [sequence: ART-K (Me3)-QTARKSTGGKAPRKQLA-GGK-biotin-OH], (AnaSpec, Fremont, Calif. Catalog. No. ANA-1413). The reference inhibitory compound tranylcypromine (or trans-2-phenylcyclopropylamine hydrochloride, also known as, 2-PCPA) was purchased from Sigma (St. Louis, Mo. Cat. no. P8511). ULight-labeled streptavidin (ULight-SA, Catalog no. TRF0102), Eu-W1024-labeled anti-methyl-Histone H3 Lysine 4 (H3K4me1-2) Antibody (Catalog no. TRF0402), and LANCE detection buffer 10× (Catalog no. CR97-100) were obtained from PerkinElmer (Montreal, Quebec, Canada). The TR-FRET experiments were carried out in white, low-volume 384-wellplates purchased from PerkinElmer (ProxiPlate-384 Plus, Catalog no. 6008280).
# The TR-FRET signal was measured in the presence both of the bio-H3K4me3 peptide and FLAG-JARID1B by detecting any H3K4me2/1 peptide produced in the assay system. Assays using only the bio-H3K4me2 peptide were served as a positive control. Robust enzymatic progressions were observed by using JARID1B at concentrations ranging from 10 to 30 nM. In a typical TR-FRET experiment, JARID1B was pre-incubated with or without 20 uM, 1 uM, or 0.1 uM of test-compounds (containing 1% DMSO final) for […]. The enzymatic reactions were initiated by the addition of 500 nM biotinylated H3K4me3 peptide substrate plus 500 uM of 2-OG, 25 uM Fe(II) and 2 mM ascorbate. The reaction buffer also contained 50 mM Hepes (pH7.5), 0.01% (v/v) Tween 20, and 50 mM NaCl. The reaction mixture was incubated for […] at room temperature before reading on an EnVision plate reader (PerkinElmer, Waltham, Mass.).
# T1 sequence (Q9UGL1 whole entry): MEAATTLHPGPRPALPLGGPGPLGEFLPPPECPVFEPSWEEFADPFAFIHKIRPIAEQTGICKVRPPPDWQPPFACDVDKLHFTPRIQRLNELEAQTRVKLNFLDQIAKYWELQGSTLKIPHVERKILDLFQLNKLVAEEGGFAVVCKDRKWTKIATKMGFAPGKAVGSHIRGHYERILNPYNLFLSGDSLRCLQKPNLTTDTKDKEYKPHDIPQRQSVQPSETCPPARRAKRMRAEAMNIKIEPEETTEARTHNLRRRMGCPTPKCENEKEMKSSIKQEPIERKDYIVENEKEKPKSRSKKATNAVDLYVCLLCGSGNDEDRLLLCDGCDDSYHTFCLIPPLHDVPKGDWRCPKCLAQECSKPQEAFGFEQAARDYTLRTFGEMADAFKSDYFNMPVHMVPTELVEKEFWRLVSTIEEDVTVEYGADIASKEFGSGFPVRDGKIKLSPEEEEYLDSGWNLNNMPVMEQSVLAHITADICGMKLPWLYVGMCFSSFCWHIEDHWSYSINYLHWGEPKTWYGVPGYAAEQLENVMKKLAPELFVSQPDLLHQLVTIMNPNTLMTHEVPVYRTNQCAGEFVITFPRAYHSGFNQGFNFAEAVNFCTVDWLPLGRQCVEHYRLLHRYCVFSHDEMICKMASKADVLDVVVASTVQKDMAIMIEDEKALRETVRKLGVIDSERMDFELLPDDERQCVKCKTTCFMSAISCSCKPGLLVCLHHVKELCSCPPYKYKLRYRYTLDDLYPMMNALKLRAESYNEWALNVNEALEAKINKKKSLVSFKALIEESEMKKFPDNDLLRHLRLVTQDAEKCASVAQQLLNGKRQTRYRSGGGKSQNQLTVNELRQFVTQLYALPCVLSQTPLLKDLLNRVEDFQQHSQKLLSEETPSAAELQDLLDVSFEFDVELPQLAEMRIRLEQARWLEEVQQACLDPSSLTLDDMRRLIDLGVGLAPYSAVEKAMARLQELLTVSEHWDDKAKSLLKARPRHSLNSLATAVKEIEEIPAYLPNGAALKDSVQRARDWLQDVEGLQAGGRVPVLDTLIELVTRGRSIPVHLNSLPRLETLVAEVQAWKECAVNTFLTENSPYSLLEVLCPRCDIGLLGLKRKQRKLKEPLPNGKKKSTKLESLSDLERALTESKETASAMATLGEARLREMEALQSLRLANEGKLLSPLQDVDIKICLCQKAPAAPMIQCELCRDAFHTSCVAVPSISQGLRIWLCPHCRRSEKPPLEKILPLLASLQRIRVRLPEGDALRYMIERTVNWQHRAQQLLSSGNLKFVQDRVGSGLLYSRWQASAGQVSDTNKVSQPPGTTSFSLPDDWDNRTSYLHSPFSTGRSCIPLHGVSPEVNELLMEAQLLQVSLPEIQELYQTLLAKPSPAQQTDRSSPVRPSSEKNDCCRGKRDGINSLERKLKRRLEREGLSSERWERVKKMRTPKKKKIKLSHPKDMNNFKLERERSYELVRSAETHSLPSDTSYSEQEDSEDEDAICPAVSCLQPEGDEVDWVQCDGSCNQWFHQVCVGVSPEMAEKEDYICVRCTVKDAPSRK
row,Compound,inhibition at 0.1 µM
1,"O=c1[nH]c(COc2ccc(Cl)cc2Cl)nc2c(CNCC3CCNCC3)nccc12 [Example 114, 2-((2,4-dichlorophenoxy)methyl)-8-(((piperidin-4-ylmethyl)amino)methyl)pyrido[3,4-d]pyrimidin-4(3H)-one]",20 to 50%
2,"O=c1[nH]c(COc2cc(Cl)ccc2Cl)nc2c(CNCC3CCNCC3)nccc12 [Example 115, 2-((2,5-dichlorophenoxy)methyl)-8-(((piperidin-4-ylmethyl)amino)methyl)pyrido[3,4-d]pyrimidin-4(3H)-one]",20 to 50%
3,"O=c1[nH]c(COc2ccc(Cc3ccccc3)cc2)nc2c(CNCC3CCNCC3)nccc12 [Example 121, 2-((4-benzylphenoxy)methyl)-8-(((piperidin-4-ylmethyl)amino)methyl)pyrido[3,4-d]pyrimidin-4(3H)-one]",> 50%
4,"O=c1[nH]c(COc2ccc(F)cc2F)nc2c(CNCC3CCNCC3)nccc12 [Example 124, 2-((2,4-difluorophenoxy)methyl)-8-(((piperidin-4-ylmethyl)amino)methyl)pyrido[3,4-d]pyrimidin-4(3H)-one]",20 to 50%
5,"O=c1[nH]c(COc2cc(F)cc(F)c2)nc2c(CNCC3CCNCC3)nccc12 [Example 125, 2-((3,5-difluorophenoxy)methyl)-8-(((piperidin-4-ylmethyl)amino)methyl)pyrido[3,4-d]pyrimidin-4(3H)-one]",20 to 50%
6,"O=c1[nH]c(COc2ccc(F)c(Cl)c2)nc2c(CNCC3CCNCC3)nccc12 [Example 126, 2-((3-chloro-4-fluorophenoxy)methyl)-8-(((piperidin-4-ylmethyl)amino)methyl)pyrido[3,4-d]pyrimidin-4(3H)-one]",> 50%
7,"O=c1[nH]c(COc2ccc(Cl)c(F)c2)nc2c(CNCC3CCNCC3)nccc12 [Example 127, 2-((4-chloro-3-fluorophenoxy)methyl)-8-(((piperidin-4-ylmethyl)amino)methyl)pyrido[3,4-d]pyrimidin-4(3H)-one]",20 to 50%
8,"N#Cc1ccccc1OCc1nc2c(CNCC3CCNCC3)nccc2c(=O)[nH]1 [Example 128, 2-((4-oxo-8-(((piperidin-4-ylmethyl)amino)methyl)-3,4-dihydropyrido[3,4-d]pyrimidin-2-yl)methoxy)benzonitrile]",20 to 50%
9,"N#Cc1ccc(OCc2nc3c(CNCC4CCNCC4)nccc3c(=O)[nH]2)cc1 [Example 129, 4-((4-oxo-8-(((piperidin-4-ylmethyl)amino)methyl)-3,4-dihydropyrido[3,4-d]pyrimidin-2-yl)methoxy)benzonitrile]",20 to 50%
10,"Cc1ccc(Cl)c(OCc2nc3c(CNCC4CCNCC4)nccc3c(=O)[nH]2)c1 [Example 130, 2-((2-chloro-5-methylphenoxy)methyl)-8-(((piperidin-4-ylmethyl)amino)methyl)pyrido[3,4-d]pyrimidin-4(3H)-one]",> 50%
11,"Cc1cc(OCc2nc3c(CNCC4CCNCC4)nccc3c(=O)[nH]2)ccc1Cl [Example 134, 2-((4-chloro-3-methylphenoxy)methyl)-8-(((piperidin-4-ylmethyl)amino)methyl)pyrido[3,4-d]pyrimidin-4(3H)-one]",20 to 50%
12,"CCc1ccc(OCc2nc3c(CNCC4CCNCC4)nccc3c(=O)[nH]2)cc1 [Example 135, 2-((4-ethylphenoxy)methyl)-8-(((piperidin-4-ylmethyl)amino)methyl)pyrido[3,4-d]pyrimidin-4(3H)-one]",20 to 50%
13,"Cc1ccc(OCc2nc3c(CNCC4CCNCC4)nccc3c(=O)[nH]2)cc1C [Example 136, 2-((3,4-dimethylphenoxy)methyl)-8-(((piperidin-4-ylmethyl)amino)methyl)pyrido[3,4-d]pyrimidin-4(3H)-one]",20 to 50%
14,"N#Cc1cccc(OCc2nc3c(CNCC4CCNCC4)nccc3c(=O)[nH]2)c1 [Example 138, 3-((4-oxo-8-(((piperidin-4-ylmethyl)amino)methyl)-3,4-dihydropyrido[3,4-d]pyrimidin-2-yl)methoxy)benzonitrile]",20 to 50%
15,"O=c1[nH]c(COc2ccc3c(c2)CCC3)nc2c(CNCC3CCNCC3)nccc12 [Example 139, 2-(((2,3-dihydro-1H-inden-5-yl)oxy)methyl)-8-(((piperidin-4-ylmethyl)amino)methyl)pyrido[3,4-d]pyrimidin-4(3H)-one]",20 to 50%
16,"O=c1[nH]c(COc2ccc(C3CCCC3)cc2)nc2c(CNCC3CCNCC3)nccc12 [Example 140, 2-((4-cyclopentylphenoxy)methyl)-8-(((piperidin-4-ylmethyl)amino)methyl)pyrido[3,4-d]pyrimidin-4(3H)-one]",20 to 50%
17,"CC(c1ccccc1)c1ccc(OCc2nc3c(CNCC4CCNCC4)nccc3c(=O)[nH]2)cc1 (stereo not shown) [Example 141, 2-((4-(1-phenylethyl)phenoxy)methyl)-8-(((piperidin-4-ylmethyl)amino)methyl)pyrido[3,4-d]pyrimidin-4(3H)-one]",20 to 50%

# Further lines, results first:
row,inhibition at 0.1 µM,Compound
1,20 to 50%,"O=c1[nH]c(COc2ccccc2F)nc2c(CNCC3CCNCC3)nccc12 [Example 116, 2-((2-fluorophenoxy)methyl)-8-(((piperidin-4-ylmethyl)amino)methyl)pyrido[3,4-d]pyrimidin-4(3H)-one]"
2,20 to 50%,"O=c1[nH]c(COc2ccccc2Br)nc2c(CNCC3CCNCC3)nccc12 [Example 117, 2-((2-bromophenoxy)methyl)-8-(((piperidin-4-ylmethyl)amino)methyl)pyrido[3,4-d]pyrimidin-4(3H)-one]"
3,20 to 50%,"Cc1ccccc1OCc1nc2c(CNCC3CCNCC3)nccc2c(=O)[nH]1 [Example 118, 8-(((piperidin-4-ylmethyl)amino)methyl)-2-((o-tolyloxy)methyl)pyrido[3,4-d]pyrimidin-4(3H)-one]"
4,20 to 50%,"Cc1cccc(OCc2nc3c(CNCC4CCNCC4)nccc3c(=O)[nH]2)c1 [Example 119, 8-(((piperidin-4-ylmethyl)amino)methyl)-2-((m-tolyloxy)methyl)pyrido[3,4-d]pyrimidin-4(3H)-one]"
5,20 to 50%,"Cc1ccc(OCc2nc3c(CNCC4CCNCC4)nccc3c(=O)[nH]2)cc1 [Example 120, 8-(((piperidin-4-ylmethyl)amino)methyl)-2-((p-tolyloxy)methyl)pyrido[3,4-d]pyrimidin-4(3H)-one]"
6,20 to 50%,"O=c1[nH]c(COc2ccccc2Cl)nc2c(CNCC3CCNCC3)nccc12 [Example 122, 2-((2-chlorophenoxy)methyl)-8-(((piperidin-4-ylmethyl)amino)methyl)pyrido[3,4-d]pyrimidin-4(3H)-one]"
7,20 to 50%,"O=c1[nH]c(COc2ccccc2)nc2c(CNCC3CCNCC3)nccc12 [Example 123, 2-(phenoxymethyl)-8-(((piperidin-4-ylmethyl)amino)methyl)pyrido[3,4-d]pyrimidin-4(3H)-one]"
8,20 to 50%,"O=c1[nH]c(COc2cnc(Br)cn2)nc2c(CNCC3CCNCC3)nccc12 [Example 131, 2-(((5-bromopyrazin-2-yl)oxy)methyl)-8-(((piperidin-4-ylmethyl)amino)methyl)pyrido[3,4-d]pyrimidin-4(3H)-one]"
9,> 50%,"O=c1[nH]c(COc2cccc(Cl)c2)nc2c(CNCC3CCNCC3)nccc12 [Example 132, 2-((3-chlorophenoxy)methyl)-8-(((piperidin-4-ylmethyl)amino)methyl)pyrido[3,4-d]pyrimidin-4(3H)-one]"
10,< 20%,"O=c1[nH]c(COc2ccccn2)nc2c(CNCC3CCNCC3)nccc12 [Example 133, 8-(((piperidin-4-ylmethyl)amino)methyl)-2-((pyridin-2-yloxy)methyl)pyrido[3,4-d]pyrimidin-4(3H)-one]"
11,20 to 50%,"Cc1cc(Cl)ccc1OCc1nc2c(CNCC3CCNCC3)nccc2c(=O)[nH]1 [Example 137, 2-((4-chloro-2-methylphenoxy)methyl)-8-(((piperidin-4-ylmethyl)amino)methyl)pyrido[3,4-d]pyrimidin-4(3H)-one]"
